Test results reported in US11208386B2, “Inhibitors of protein arginine deiminases (PADs) and methods of preparation and use thereof” (University of Massachusetts, priority 2016, dated 2021).

Key:
Type in all cases: biochemical
[1] = target: T1, PAD3 (Homo sapiens, UniProt Q9ULW8); assay: Inactivation kinetics, PAD3; details: for kinact/KI: a: single kobs determined; for Fold PAD3 Selectivity: kinact/KI relative to least inhibited isozyme (1.0)
T1 construct: made in house
T1 sequence (Q9ULW8 1-664): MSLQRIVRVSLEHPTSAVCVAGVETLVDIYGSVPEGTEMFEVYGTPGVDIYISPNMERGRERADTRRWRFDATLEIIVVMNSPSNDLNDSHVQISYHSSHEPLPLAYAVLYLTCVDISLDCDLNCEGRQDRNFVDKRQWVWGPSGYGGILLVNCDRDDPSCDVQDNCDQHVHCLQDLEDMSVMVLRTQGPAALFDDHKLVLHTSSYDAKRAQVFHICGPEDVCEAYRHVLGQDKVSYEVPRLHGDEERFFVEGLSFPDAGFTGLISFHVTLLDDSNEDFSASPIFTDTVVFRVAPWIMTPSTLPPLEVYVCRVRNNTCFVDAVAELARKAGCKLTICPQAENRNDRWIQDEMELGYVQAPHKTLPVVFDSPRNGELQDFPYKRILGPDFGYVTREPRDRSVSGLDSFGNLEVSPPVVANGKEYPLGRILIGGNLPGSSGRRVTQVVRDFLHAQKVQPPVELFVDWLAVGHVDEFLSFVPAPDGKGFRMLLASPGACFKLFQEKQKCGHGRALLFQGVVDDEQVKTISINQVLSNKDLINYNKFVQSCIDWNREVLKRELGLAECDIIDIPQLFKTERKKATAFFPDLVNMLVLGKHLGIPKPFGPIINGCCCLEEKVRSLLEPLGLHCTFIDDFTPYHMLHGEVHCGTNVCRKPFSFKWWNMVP
Outline: (§1)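 PAD1, 2 or 4 (2.0 μM) or PAD3 (5.0 μM) preincubated at 37 °C with varying inhibitor in 50 mM HEPES, 10 mM CaCl2, 2 mM DTT, pH 7.6. Timed aliquots assayed 15 min with 10 mM BAEE (BAA for PAD3); citrulline quantified by COLDER.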

[2] = target: T2, PAD2 (Homo sapiens, UniProt Q9Y2J8); assay: Inactivation kinetics, PAD2; details: for kinact/KI: a: single kobs determined, b: from a linear fit, other footnotes: from kinact and KI; for Fold PAD2 Selectivity: kinact/KI relative to least inhibited isozyme (1.0); for Ki / kinact: PAD2, table footnote
T2 construct: made in house
Outline: as §1

[3] = target: T3, PAD1 (Homo sapiens, UniProt Q9ULC6); assay: Inactivation kinetics, PAD1; details: for kinact/KI: a: single kobs determined, b: from a linear fit; for Fold PAD1 Selectivity: kinact/KI relative to least inhibited isozyme (1.0)
T3 construct: made in house
T3 sequence (Q9ULC6 1-663): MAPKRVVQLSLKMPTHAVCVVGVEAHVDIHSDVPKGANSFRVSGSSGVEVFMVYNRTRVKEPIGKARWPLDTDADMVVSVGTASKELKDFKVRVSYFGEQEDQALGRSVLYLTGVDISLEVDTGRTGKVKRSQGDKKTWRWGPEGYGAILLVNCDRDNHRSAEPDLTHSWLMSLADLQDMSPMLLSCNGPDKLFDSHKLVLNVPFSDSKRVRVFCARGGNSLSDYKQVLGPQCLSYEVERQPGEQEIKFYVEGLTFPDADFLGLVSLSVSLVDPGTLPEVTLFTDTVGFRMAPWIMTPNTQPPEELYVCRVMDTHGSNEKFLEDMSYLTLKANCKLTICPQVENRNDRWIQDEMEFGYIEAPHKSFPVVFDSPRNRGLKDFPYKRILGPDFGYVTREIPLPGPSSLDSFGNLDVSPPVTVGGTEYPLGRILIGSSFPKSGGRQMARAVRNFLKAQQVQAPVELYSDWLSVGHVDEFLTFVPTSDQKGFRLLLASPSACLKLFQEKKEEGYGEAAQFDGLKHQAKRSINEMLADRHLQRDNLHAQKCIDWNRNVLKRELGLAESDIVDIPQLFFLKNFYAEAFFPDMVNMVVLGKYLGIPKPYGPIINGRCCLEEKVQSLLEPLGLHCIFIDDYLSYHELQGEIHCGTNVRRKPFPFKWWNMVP
Outline: as §1

[4] = target: T4, PAD4 (Homo sapiens, UniProt Q9UM07); assay: Inactivation kinetics, PAD4; details: for kinact/KI: a: single kobs determined, b: from a linear fit; for Fold PAD4 Selectivity: kinact/KI relative to least inhibited isozyme (1.0)
T4 construct: made in house
Outline: as §1

T2 sequence (Q9Y2J8 whole entry): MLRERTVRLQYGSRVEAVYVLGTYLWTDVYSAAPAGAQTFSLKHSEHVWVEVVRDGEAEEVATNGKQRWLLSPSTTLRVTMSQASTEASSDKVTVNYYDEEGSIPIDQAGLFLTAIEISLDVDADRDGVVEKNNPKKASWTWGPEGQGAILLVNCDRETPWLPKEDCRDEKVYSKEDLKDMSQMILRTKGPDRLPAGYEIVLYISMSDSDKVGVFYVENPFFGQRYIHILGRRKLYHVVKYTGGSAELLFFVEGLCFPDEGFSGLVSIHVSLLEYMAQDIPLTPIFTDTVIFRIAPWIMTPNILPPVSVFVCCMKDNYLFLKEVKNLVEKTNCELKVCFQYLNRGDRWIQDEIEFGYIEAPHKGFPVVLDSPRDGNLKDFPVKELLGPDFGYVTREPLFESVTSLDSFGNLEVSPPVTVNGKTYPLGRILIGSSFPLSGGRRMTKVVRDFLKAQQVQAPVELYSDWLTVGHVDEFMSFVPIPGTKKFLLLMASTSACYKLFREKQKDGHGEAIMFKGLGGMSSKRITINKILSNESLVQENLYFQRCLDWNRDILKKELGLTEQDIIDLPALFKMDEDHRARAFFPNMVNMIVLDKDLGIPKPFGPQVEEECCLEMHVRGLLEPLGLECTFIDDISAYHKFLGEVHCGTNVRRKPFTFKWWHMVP
T4 sequence (Q9UM07 whole entry): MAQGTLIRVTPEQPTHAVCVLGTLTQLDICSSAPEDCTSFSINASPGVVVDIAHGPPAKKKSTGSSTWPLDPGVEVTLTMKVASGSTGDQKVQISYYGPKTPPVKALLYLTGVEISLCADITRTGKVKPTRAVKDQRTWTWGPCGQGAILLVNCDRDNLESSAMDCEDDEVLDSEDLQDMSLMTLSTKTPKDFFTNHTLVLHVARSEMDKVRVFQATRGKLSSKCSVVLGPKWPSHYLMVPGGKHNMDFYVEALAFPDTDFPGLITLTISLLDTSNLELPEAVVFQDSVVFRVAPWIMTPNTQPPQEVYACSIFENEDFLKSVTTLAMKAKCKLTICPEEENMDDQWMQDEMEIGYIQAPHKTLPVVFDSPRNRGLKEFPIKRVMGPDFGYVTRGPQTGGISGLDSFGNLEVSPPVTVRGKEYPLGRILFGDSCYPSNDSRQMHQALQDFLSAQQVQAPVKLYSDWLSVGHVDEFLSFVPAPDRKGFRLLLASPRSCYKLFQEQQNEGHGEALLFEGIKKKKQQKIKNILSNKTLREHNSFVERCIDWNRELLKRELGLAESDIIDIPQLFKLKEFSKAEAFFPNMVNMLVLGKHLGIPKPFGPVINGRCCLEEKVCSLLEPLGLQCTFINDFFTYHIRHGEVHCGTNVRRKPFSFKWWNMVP

Row | Structure (SMILES) | kinact/KI [1] | Fold PAD3 Selectivity [1] | kinact/KI [2] | Fold PAD2 Selectivity [2] | kinact/KI [3] | Fold PAD1 Selectivity [3] | kinact/KI [4] | Fold PAD4 Selectivity [4] | Ki [2] | kinact [2]
1 | CC(C)n1c([C@H](CCCNC(=N)CF)NC(=O)c2ccccc2C(=O)OC(C)(C)C)nc2ccccc21 [Compound 9e, N1-(2-tert-butylcarboxy)benzoyl-N5-(2-fluoro-1-iminoethyl)-1-(1-isopropyl-benzo[d]imidazol-2-yl)-L-omithine] | 35 M⁻¹ s⁻¹ | 13 fold | 50.2 M⁻¹ s⁻¹ | 19 fold | 23.7 M⁻¹ s⁻¹ | 8.9 fold | 2.67 M⁻¹ s⁻¹ | 1.0 fold | – | –
2 | CCn1c([C@H](CCCNC(=N)CF)NC(=O)c2cccc3c2C(=O)NC3)nc2ccccc21 [Compound 7e, N1-(3-oxoisoindoline)benzoyl-N5-(2-fluoro-1-iminoethyl)-1-(1-ethyl-benzo[d]imidazol-2-yl)-L-ornithine] | 18.3 M⁻¹ s⁻¹ | 1.0 fold | 1030 M⁻¹ s⁻¹ | 56 fold | 675 M⁻¹ s⁻¹ | 37 fold | 31.7 M⁻¹ s⁻¹ | 1.7 fold | 32.9 µM | 0.0337 s⁻¹
3 | CCOc1cccc2c1nc([C@H](CCCNC(=N)CCl)NC(=O)c1cccc3c1C(=O)N(CC)C3)n2C [Compound 8n, N1-(2-ethyl-3-oxoisoindoline)benzoyl-N5-(2chloro-1-iminoethyl)-1-(4-ethoxy-1-methyl-benzo[d]imidazol-2-yl)-L-ornithine] | 138 M⁻¹ s⁻¹ | 5.5 fold | 1090 M⁻¹ s⁻¹ | 43 fold | 302 M⁻¹ s⁻¹ | 12 fold | 25.2 M⁻¹ s⁻¹ | 1.0 fold | – | –
4 | CCN1Cc2cccc(C(=O)N[C@@H](CCCNC(=N)CCl)c3nc4ccccc4n3C)c2C1=O [Compound 8d, N1-(2-ethyl-3-oxoisoindoline)benzoyl-N5-(2-chloro-1-iminoethyl)-1-(1-methyl-benzo[d]imidazol-2-yl)-L-ornithine] | 62.8 M⁻¹ s⁻¹ | 1.0 fold | 1190 M⁻¹ s⁻¹ | 19 fold | 1320 M⁻¹ s⁻¹ | 21 fold | 75.7 M⁻¹ s⁻¹ | 1.2 fold | – | –
5 | CCn1c([C@H](CCCNC(=N)CCl)NC(=O)c2ccc(-c3ccccc3)cc2)nc2ccccc21 [Compound 5j, N1-[1,4′-Phenyl]benzoyl-N5-(2-chloro-1-iminoethyl)-1-(1-ethyl-benzo[d]imidazol-2-yl)-L-ornithine] | 284 M⁻¹ s⁻¹ | 4.1 fold | 80.8 M⁻¹ s⁻¹ | 1.2 fold | 84.3 M⁻¹ s⁻¹ | 1.2 fold | 69.2 M⁻¹ s⁻¹ | 1.0 fold | – | –
6 | CCN1Cc2cccc(C(=O)N[C@@H](CCCNC(=N)CCl)c3nc4cc(OC)ccc4[nH]3)c2C1=O [Compound 8x, N1-(2-ethyl-3-oxoisoindoline)benzoyl-N5-(2-chloro-1-iminoethyl)-1-(5-methoxy-1H-benzo[d]imidazol-2-yl)-L-ornithine] | 267 M⁻¹ s⁻¹ | 4.1 fold | 590 M⁻¹ s⁻¹ | 9.1 fold | 504 M⁻¹ s⁻¹ | 7.8 fold | 64.8 M⁻¹ s⁻¹ | 1.0 fold | – | –
7 | COc1cccc2c1nc([C@H](CCCNC(=N)CCl)NC(=O)c1cccc3c1C(=O)N(C(C)C)C3)n2C [Compound 8r] | 241 M⁻¹ s⁻¹ | 1.2 fold | 853 M⁻¹ s⁻¹ | 4.1 fold | 732 M⁻¹ s⁻¹ | 3.5 fold | 207 M⁻¹ s⁻¹ | 1.0 fold | – | –
8 | CCN1Cc2cccc(C(=O)N[C@@H](CCCNC(=N)CF)c3nc4c(OC)cccc4n3C)c2C1=O [Compound 8k, N1-(2-ethyl-3-oxoisoindoline)benzoyl-N5-(2-fluoro-1-iminoethyl)-1-(4-methoxy-1-methyl-benzo[d]imidazol-2-yl)-L-ornithine] | 72 M⁻¹ s⁻¹ | 1.0 fold | 6090 M⁻¹ s⁻¹ | 85 fold | 1180 M⁻¹ s⁻¹ | 16 fold | 71.7 M⁻¹ s⁻¹ | 1.0 fold | 5.3 µM | 0.0323 s⁻¹
9 | CCN1Cc2cccc(C(=O)N[C@@H](CCCNC(=N)CCl)c3nc4cc(OC)ccc4n3CC)c2C1=O [Compound 8z, N1-(2-ethyl-3-oxoisoindoline)benzoyl-N5-(2-chloro-1-iminoethyl)-1-(5-methoxy-1-ethyl-benzo[d]imidazol-2-yl)-L-ornithine] | 198 M⁻¹ s⁻¹ | 8.4 fold | 637 M⁻¹ s⁻¹ | 27 fold | 501 M⁻¹ s⁻¹ | 21 fold | 23.5 M⁻¹ s⁻¹ | 1.0 fold | – | –
10 | CCN1Cc2cccc(C(=O)N[C@@H](CCCNC(=N)CF)c3nc4cc(OC)ccc4[nH]3)c2C1=O [Compound 8w, N1-(2-ethyl-3-oxoisoindoline)benzol-N5-(2-fluoro-1-iminoethyl)-1-(5-methoxy-1H-benzo[d]imidazol-2-yl)-L-ornithine] | 127 M⁻¹ s⁻¹ | 3.6 fold | 226 M⁻¹ s⁻¹ | 6.3 fold | 156 M⁻¹ s⁻¹ | 4.4 fold | 35.7 M⁻¹ s⁻¹ | 1.0 fold | – | –
11 | CCN1Cc2cccc(C(=O)N[C@@H](CCCNC(=N)CF)c3nc4cc(OC)ccc4n3CC)c2C1=O [Compound 8y, N1-(2-ethyl-3-oxoisoindoline)benzoyl-N5-(2-fluoro-1-iminoethyl)-1-(5-methoxy-1-ethyl-benzo[d]imidazol-2-yl)-L-ornithine] | 24.7 M⁻¹ s⁻¹ | 2.7 fold | 630 M⁻¹ s⁻¹ | 70 fold | 253 M⁻¹ s⁻¹ | 28 fold | 9 M⁻¹ s⁻¹ | 1.0 fold | – | –
12 | COc1cccc2c1nc([C@H](CCCNC(=N)CF)NC(=O)c1ccccc1C(=O)O)n2C [Compound 6i, N1-(2-Carboxyl)benzoyl-N5-(2-fluoro-1-iminoethyl)-1-(4-methoxy-1-methyl-benzo[d]imidazol-2-yl)-L-ornithine] | 113 M⁻¹ s⁻¹ | 1.1 fold | 340 M⁻¹ s⁻¹ | 3.4 fold | 627 M⁻¹ s⁻¹ | 6.2 fold | 101 M⁻¹ s⁻¹ | 1.0 fold | – | –
13 | N=C(CCl)NCCC[C@H](NC(=O)c1ccccc1)c1nc2ccccc2[nH]1 [Compound 5b, N1-benzoyl-N5-(2-chloro-1-iminoethyl)-1-(1H-benzo[d]imidazol-2-yl)-L-ornithine] | 163 M⁻¹ s⁻¹ | 20 fold | 8.33 M⁻¹ s⁻¹ | 1.0 fold | 132 M⁻¹ s⁻¹ | 16 fold | 254 M⁻¹ s⁻¹ | 31 fold | – | –
14 | CC(C)n1c([C@H](CCCNC(=N)CF)NC(=O)c2ccc(-c3ccccc3)cc2)nc2ccccc21 [Compound 5k, N1-[1,4′-Phenyl]benzoyl-N5-(2-fluoro-1-iminoethyl)-1-(1-isopropyl-benzo[d]imidazol-2-yl)-L-ornithine] | 28.3 M⁻¹ s⁻¹ | 85 fold | 11.3 M⁻¹ s⁻¹ | 34 fold | 0.333 M⁻¹ s⁻¹ | 1.0 fold | 0.333 M⁻¹ s⁻¹ | 1.0 fold | – | –
